In ChEMBL document CHEMBL1144258, “Topochemical model for prediction of anti-HIV activity of HEPT analogs” (Bioorg Med Chem Lett, 2005):

system: Human immunodeficiency virus 1; assay: Inhibitory activity against human immunodeficiency virus type 1; assay type: functional, organism-based

Compound | IC50 [nM]
CCc1c(Sc2ccccc2)n(COCc2ccccc2)c(=O)[nH]c1=O | < 100
CCc1c(Sc2cc(C)cc(C)c2)n(COCc2ccco2)c(=O)[nH]c1=O | < 100
CCc1c(Sc2cc(C)cc(C)c2)n(COCc2ccccc2)c(=O)[nH]c1=O | < 100
CCc1c(Sc2ccccc2)n(COCc2cccs2)c(=O)[nH]c1=O | < 100
CCc1c(Sc2ccccc2)n(COCc2cc3ccccc3o2)c(=O)[nH]c1=O | < 100
CCc1c(Sc2ccccc2)n(COCc2ccco2)c(=O)[nH]c1=O | < 100
CCc1c(Sc2cc(C)cc(C)c2)n(COCc2cccs2)c(=O)[nH]c1=O | < 100

system: Human immunodeficiency virus 1; assay: Inhibitory activity against human immunodeficiency virus type 1 (inactive>0.1); assay type: functional, organism-based

Compound | IC50
Cc1c(SC2CCCCC2)n(COCNC(=O)CCCl)c(=O)[nH]c1=O | Inactive
Cc1c(SC2CCCCC2)n(COCN2CCNCC2)c(=O)[nH]c1=O | Inactive
CCc1c(Sc2ccccc2)n(COCc2ccc([N+](=O)[O-])s2)c(=O)[nH]c1=O | Inactive
Cc1c(SC2CCCCN2)n(COCSc2ccccc2)c(=O)[nH]c1=O (stereo not drawn) | Inactive
Cc1c(Sc2ccccc2)n(COCc2ccco2)c(=O)[nH]c1=O | Inactive
Cc1c(SC2CCCCC2)n(COCN(CC#N)CC#N)c(=O)[nH]c1=O | Inactive
Cc1c(SC2CCCCC2)n(COCSc2ccncc2)c(=O)[nH]c1=O | Inactive
Cc1c(SC2CCCCC2)n(COCNC(=O)CNCP(=O)(O)O)c(=O)[nH]c1=O | Inactive
Cc1c(Sc2ccccc2)n(COCc2ccc([N+](=O)[O-])s2)c(=O)[nH]c1=O | Inactive
Cc1c(Sc2ccccc2)n(COCc2cccnc2)c(=O)[nH]c1=O | Inactive
Cc1c(SC2CCCCC2)n(COCI)c(=O)[nH]c1=O | Inactive
Cc1c(SC2CCCCC2)n(COCNc2ccccc2)c(=O)[nH]c1=O | Inactive
Cc1c(SC2CCCCN2)n(COCSc2ccncc2)c(=O)[nH]c1=O (stereo not drawn) | Inactive
Cc1c(SC2CCCCC2)n(COCNC(=O)CP(=O)(O)O)c(=O)[nH]c1=O | Inactive
Cc1c(SC2CCCCC2)n(COCN2CCOCC2)c(=O)[nH]c1=O | Inactive
Cc1c(SC2CCCCC2)n(COCN)c(=O)[nH]c1=O | Inactive
Cc1c(Sc2ccccc2)n(COCC2CCCCC2)c(=O)[nH]c1=O | Inactive
Cc1c(SC2CCCCN2)n(COCNc2ccccc2)c(=O)[nH]c1=O (stereo not drawn) | Inactive
Cc1c(SC2CCCCC2)n(COCBr)c(=O)[nH]c1=O | Inactive
Cc1c(Sc2ccccc2)n(COCc2ccccc2)c(=O)[nH]c1=O | Inactive
Cc1c(Sc2ccccc2)n(COCc2cc3ccccc3o2)c(=O)[nH]c1=O | Inactive
Cc1c(SC2CCCCC2)n(COCN(c2ccccc2)c2ccccc2)c(=O)[nH]c1=O | Inactive
Cc1c(Sc2ccccc2)n(COCc2cccs2)c(=O)[nH]c1=O | Inactive
Cc1c(SC2CCCCC2)n(COCN(C(=O)c2ccccc2)C(=O)c2ccccc2)c(=O)[nH]c1=O | Inactive
Cc1c(SC2CCCCC2)n(COCNC(=O)c2ccccc2)c(=O)[nH]c1=O | Inactive
Cc1c(SC2CCCCC2)n(COCSc2ccccc2)c(=O)[nH]c1=O | Inactive
